According to ChEMBL document CHEMBL1143462, “The discovery of fluoropyridine-based inhibitors of the Factor VIIa/TF complex” (Bioorg Med Chem Lett, 2005):

What was measured:
[1] = In vitro inhibitory activity against prolonging prothrombin time as anticoagulant effect on extrinsic coagulation pathway; assay type: functional; details: Homo sapiens
[2] = biological target: Coagulation factor VII/tissue factor (Homo sapiens, UniProt P08709); test: Inhibitory concentration against human coagulation factor VIIa/tissue factor cleavage of fluorogenic substrate SN17c at 37 degree C for 15 minutes; assay type: protein-complex assay
Sequence of Coagulation factor VII/tissue factor (P08709 61-212 limits assumed): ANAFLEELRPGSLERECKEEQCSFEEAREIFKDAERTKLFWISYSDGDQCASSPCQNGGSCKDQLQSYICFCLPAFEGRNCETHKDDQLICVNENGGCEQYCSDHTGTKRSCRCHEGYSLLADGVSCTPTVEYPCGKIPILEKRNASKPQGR
Sequence of Coagulation factor VII/tissue factor (P08709 213-466 limits assumed): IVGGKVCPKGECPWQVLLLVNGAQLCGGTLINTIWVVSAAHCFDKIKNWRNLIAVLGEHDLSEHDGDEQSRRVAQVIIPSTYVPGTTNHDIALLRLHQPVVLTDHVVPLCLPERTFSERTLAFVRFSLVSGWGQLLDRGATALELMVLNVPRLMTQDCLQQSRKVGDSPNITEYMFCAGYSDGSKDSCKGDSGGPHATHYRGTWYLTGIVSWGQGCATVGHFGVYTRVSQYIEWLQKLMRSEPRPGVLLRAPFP
Sequence of Coagulation factor VII/tissue factor (P13726 33-295 partner limits assumed): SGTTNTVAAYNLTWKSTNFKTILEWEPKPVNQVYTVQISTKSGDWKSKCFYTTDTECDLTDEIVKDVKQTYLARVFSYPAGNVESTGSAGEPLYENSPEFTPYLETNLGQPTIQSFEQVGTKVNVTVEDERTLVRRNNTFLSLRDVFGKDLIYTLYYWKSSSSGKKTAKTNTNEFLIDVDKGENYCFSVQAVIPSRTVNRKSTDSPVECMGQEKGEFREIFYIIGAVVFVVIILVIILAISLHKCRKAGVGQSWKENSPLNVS

[3] = biological target: Coagulation factor X (Homo sapiens, UniProt P00742); test: Inhibitory concentration against human coagulation factor Xa
Sequence of Coagulation factor X (P00742 41-179 limits assumed): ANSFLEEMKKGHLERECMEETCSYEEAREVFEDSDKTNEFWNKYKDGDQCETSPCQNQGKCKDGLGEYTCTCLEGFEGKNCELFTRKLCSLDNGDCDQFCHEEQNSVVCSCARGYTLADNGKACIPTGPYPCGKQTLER
Sequence of Coagulation factor X (P00742 235-488 limits assumed): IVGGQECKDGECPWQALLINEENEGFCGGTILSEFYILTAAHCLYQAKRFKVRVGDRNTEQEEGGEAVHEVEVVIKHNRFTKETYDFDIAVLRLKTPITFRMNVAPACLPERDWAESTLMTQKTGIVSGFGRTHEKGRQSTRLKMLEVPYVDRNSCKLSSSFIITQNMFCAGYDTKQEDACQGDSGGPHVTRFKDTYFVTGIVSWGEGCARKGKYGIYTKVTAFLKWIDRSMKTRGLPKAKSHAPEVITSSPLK

Compound	IC50 [2] [nM]	IC50 [3] [nM]	Concentration prolonging prothrombin time [1] [µM]
CC(CCc1ccccc1)Nc1c(F)c(Oc2cccc(C(=N)N)c2)nc(Oc2ccc(OC(C)C)cc2C(=O)O)c1F (stereo unspecified)	17	12000	52
CC(CCc1ccccc1)Nc1c(F)c(Oc2cccc(C(=N)N)c2)nc(Oc2ccc(C(=O)NCCCCO)cc2C(=O)O)c1F (stereo unspecified)	67	20000	16
CC(CCc1ccccc1)Nc1c(F)c(Oc2cccc(C(=N)N)c2)nc(Oc2ccc(C(=O)NC(C)(C)CO)cc2C(=O)O)c1F (stereo unspecified)	16	59000	11
CC(CCc1ccccc1)Nc1c(F)c(Oc2cccc(C(=N)N)c2)nc(Oc2ccc(C(=O)NC(CO)CO)cc2C(=O)O)c1F (stereo unspecified)	46	13000	9
Cc1c(F)c(Oc2cccc(C(=N)N)c2)nc(Oc2ccccc2C(=O)O)c1F	1200	< 10000	
CC(CCc1ccccc1)Nc1c(F)c(Oc2cccc(C(=N)N)c2)nc(Oc2ccc(N(C)C)cc2C(=O)O)c1F (stereo in doubt; 19) [listing 1 of 2 here]			49
CC(CCc1ccccc1)Nc1c(F)c(Oc2cccc(C(=N)N)c2)nc(Oc2ccc(N(C)C)cc2C(=O)O)c1F (stereo in doubt; 28) [listing 1 of 2 here]			16
CC(CCc1ccccc1)Nc1c(F)c(Oc2cccc(C(=N)N)c2)nc(Oc2ccc(C(=O)NCc3ccc(O)c(O)c3)cc2C(=O)O)c1F (stereo unspecified)	140		
CC(CCc1ccccc1)Nc1c(F)c(Oc2cccc(C(=N)N)c2)nc(Oc2ccc(C(=O)NCc3cccc(O)c3)cc2C(=O)O)c1F (stereo unspecified)	39	4100	49
CC(CCc1ccccc1)Nc1c(F)c(Oc2cccc(C(=N)N)c2)nc(Oc2ccc(C(C)C)cc2C(=O)O)c1F (stereo unspecified)	15	4800	28
C[C@H](CCc1ccccc1)Nc1c(F)c(Oc2cccc(C(=N)N)c2)nc(Oc2ccccc2C(=O)O)c1F	45	51000	29
CC(CCc1ccccc1)Nc1c(F)c(Oc2cccc(C(=N)N)c2)nc(Oc2ccc(C(=O)O)cc2C(=O)O)c1F (stereo unspecified)	200		
CCN(CC)c1ccc(Oc2nc(Oc3cccc(C(=N)N)c3)c(F)c(NC(C)CCc3ccccc3)c2F)c(C(=O)O)c1 (stereo unspecified)	16	9600	83
CCOc1ccc(Oc2nc(Oc3cccc(C(=N)N)c3)c(F)c(NC(C)CCc3ccccc3)c2F)c(C(=O)O)c1 (stereo unspecified)	29	17000	94
CC(CCc1ccccc1)Nc1c(F)c(Oc2cccc(C(=N)N)c2)nc(Oc2ccc(C(=O)NC(C)C(C)(C)C)cc2C(=O)O)c1F (stereo unspecified)	14	4300	15
CCCCN(CCCC)c1ccc(Oc2nc(Oc3cccc(C(=N)N)c3)c(F)c(NC(C)CCc3ccccc3)c2F)c(C(=O)O)c1 (stereo unspecified)	36		
CC(CCc1ccccc1)Nc1c(F)c(Oc2cccc(C(=N)N)c2)nc(Oc2ccc(N(C)C)cc2C(=O)O)c1F (stereo in doubt; 19) [listing 2 of 2 here]	13	6800	
CC(CCc1ccccc1)Nc1c(F)c(Oc2cccc(C(=N)N)c2)nc(Oc2ccc(-c3ccccc3)cc2C(=O)O)c1F (stereo unspecified)	23	17000	112
COc1ccc(Oc2nc(Oc3cccc(C(=N)N)c3)c(F)c(NC(C)CCc3ccccc3)c2F)c(C(=O)O)c1 (stereo unspecified)	39	11000	
CC(CCc1ccccc1)Nc1c(F)c(Oc2cccc(C(=N)N)c2)nc(Oc2ccc(N)cc2C(=O)O)c1F (stereo unspecified)	79	11000	

The next lines start with results.

IC50 [2] [nM]	IC50 [3] [nM]	Compound	Concentration prolonging prothrombin time [1] [µM]
71		CC(CCc1ccccc1)Nc1c(F)c(Oc2cccc(C(=N)N)c2)nc(Oc2ccc(C(=O)NCCCO)cc2C(=O)O)c1F (stereo unspecified)	12
8	9500	COc1cccc(CNC(=O)c2ccc(Oc3nc(Oc4cccc(C(=N)N)c4)c(F)c(NC(C)CCc4ccccc4)c3F)c(C(=O)O)c2)c1 (stereo unspecified)	53
190		Cc1c(F)c(Oc2cccc(C(=N)N)c2)nc(Oc2ccc(N(C)C)cc2C(=O)O)c1F	
21	3300	CC(CCc1ccccc1)Nc1c(F)c(Oc2cccc(C(=N)N)c2)nc(Oc2ccc(C(C)(C)C)cc2C(=O)O)c1F (stereo unspecified)	24
17	8000	CNc1ccc(Oc2nc(Oc3cccc(C(=N)N)c3)c(F)c(NC(C)CCc3ccccc3)c2F)c(C(=O)O)c1 (stereo unspecified)	41
15	4500	CC(CCc1ccccc1)Nc1c(F)c(Oc2cccc(C(=N)N)c2)nc(Oc2ccc(N(C)C)cc2C(=O)O)c1F (stereo in doubt; 28) [listing 2 of 2 here]	
560	11000	CC(CCc1ccccc1)Nc1c(F)c(Oc2cccc(C(=N)N)c2)nc(Oc2ccc(O)cc2C(=O)O)c1F (stereo unspecified)	
20	29000	Cc1ccc(Oc2nc(Oc3cccc(C(=N)N)c3)c(F)c(NC(C)CCc3ccccc3)c2F)c(C(=O)O)c1 (stereo unspecified)	
	55000	CC(CCc1ccccc1)Nc1c(F)c(Oc2cccc(C(=N)N)c2)nc(Oc2ccccc2C(=O)O)c1F (stereo unspecified)	35
10	9600	CC(C)CNC(=O)c1ccc(Oc2nc(Oc3cccc(C(=N)N)c3)c(F)c(NC(C)CCc3ccccc3)c2F)c(C(=O)O)c1 (stereo unspecified)	22
19	26000	CCCOc1ccc(Oc2nc(Oc3cccc(C(=N)N)c3)c(F)c(NC(C)CCc3ccccc3)c2F)c(C(=O)O)c1 (stereo unspecified)	95
23	5700	CCC(CO)NC(=O)c1ccc(Oc2nc(Oc3cccc(C(=N)N)c3)c(F)c(NC(C)CCc3ccccc3)c2F)c(C(=O)O)c1 (stereo unspecified)	10
730		CC(CCc1ccccc1)Nc1c(F)c(Oc2cccc(C(=N)N)c2)nc(Oc2ccc(C(=O)N[C@H](O)C(=O)O)cc2C(=O)O)c1F (stereo partly specified)	
